# Results: patent publication US9873705B2, “Vinylogous thioester compounds and methods of use” (THE TRUSTEES OF DARTMOUTH COLLEGE, priority 2015, dated 2018)
# “Also recorded” adds a separate entry of the source.
# Tests used:
# U-87-MG = test: Glioblastoma cell growth, Alamar Blue, 3 or 7 days; format: cell-based, human; conditions: 3.9×10^-8 M to 2×10^-5 M
# Experimental: (§1) 1000 cells in logarithmic phase were seeded per well (96 well plates) on day zero. The cells were treated for either 3 (red) or 7 (blue) days at a concentration range between 3.9×10^-8 M and 2×10^-5 M. Growth was assayed by the Alamar Blue method.
# U251-MG = test: Glioblastoma cell growth, Alamar Blue, 3 or 7 days; format: cell-based, human; conditions: 3.9×10^-8 M to 2×10^-5 M
# Experimental: as §1
# U87-MG cells [1] = test: U87-MG cell viability, alamarBlue, washout; format: cell-based, human; conditions: 2 hour treatment then washout compared to 72 hour treatment; 0 to 20 μM
# Experimental: Growth inhibition assays as described above were performed on ira2Δ yeast cells and NF1-deficient glioblastoma cells. Log-phase yeast were grown at 30° C. starting at an OD600 of 0.05 in 96-well plates with Y102 at concentrations ranging from 0 to 100 μM. Following 18 h treatment, OD600 was measured using a THERMOmax (Molecular Devices) microplate reader and SOFTmax Pro 4.3 LS software. Results were plotted as a percentage compared to DMSO control using GraphPad Prism software. Graph represents an average of three experiments with four technical replicates per experiment (FIG. 2A). In a similar experiment U87-MG cells were plated at a concentration of 5,000 cells/well into 96-well plates and allowed to adhere overnight. The following day, cells were treated with Y102 at concentrations ranging from 0 to 20 μM for up to 72 h. For treatments less than 72 h, treatment media was removed at the indicated time points and replaced with normal growth medium. Three hours prior to collection, alamarBlue (Thermo Scientific) was added to a final concentration of 5% v/v. AlamarBlue fluorescence was determined with a Spectramax M2 (Molecular Devices) plate reader at an excitation of 544 nm and an emission of 590 nm using SoftMax Pro 3 software. Results were plotted as a percentage compared to DMSO control using GraphPad Prism software (FIG. 2B). […]
# ROS in U87-MG cells = test: ROS detection by DCF-DA immunofluorescence; format: cell-based, human; conditions: Y102 2.2 or 4.5 μM 24 h, S1 20 μM 1 h, vs DMSO
# Experimental: Damaged mitochondria generate and accumulate reactive oxygen species (ROS), which are damaging to the cell. RAS dysregulated tumors are reported to depend on autophagy in order to remove the damaged mitochondria and allow for their survival (22). […] The ROS detection reagent DCF-DA, which is converted to its fluorescent form DCF upon ROS-mediated oxidation, was used to examine if ROS levels increase with Y102 treatment.
# The data for FIG. 5 was obtained as follows: U87-MG cells were plated on poly-D-lysine (Neuvitro Corporation) coated coverslips at a concentration of 50,000 cells/well in a 24-well plate and allowed to adhere overnight. Cells were treated for 24 h with DMSO, 2.2 μM Y102, or 4.5 μM Y102, or for 1 h with 20 μM S1. 30 minutes prior to treatment end, cells were stained with 20 μM 2′, 7′-dichlorofluorescin diacetate (DCFDA, Sigma, green) at 37° C. Following staining, cells were fixed for 10 minutes with 3.7% formaldehyde. After an additional two washes with PBST, cell nuclei were stained with 0.33 μg/mL DAPI (Molecular Probes) for 30 minutes (blue). Coverslips were mounted on glass slides with ProLong Gold antifade medium. Wide-field images were taken with a Zeiss Imager Z1 wide-field microscope using a 40×1.3 NA EC Plan-NEOFLUAR objective and Zeiss Axiovision software. Scale bar, 20 μm.
# U87-MG cells [2] = test: U87-MG viability with NAC pretreatment, alamarBlue; format: cell-based, human; conditions: 2 hour pretreatment with 5 mM NAC, then 72 hours Y102
# Experimental: The data for FIG. 6 was obtained as follows: U87-MG cells were plated at a concentration of 5,000 cells/well into 96-well plates and allowed to adhere overnight. The following day, cells were pretreated with 5 mM N-acetyl cysteine (NAC) or the equivalent volume of DMSO 2 h prior to treatment with Y102 at concentrations ranging from 0 to 20 μM for 72 h. Three hours prior to collection, alamarBlue (Thermo Scientific) was added to a final concentration of 5% v/v. AlamarBlue fluorescence was determined with a Spectramax M2 (Molecular Devices) plate reader at an excitation of 544 nm and an emission of 590 nm using SoftMax Pro 3 software. Results were plotted as a percentage compared to DMSO control using GraphPad Prism software (FIG. 6).
# [3] = test system: BNIP3L/Nix in NF1+/+ and NF1−/− IMEC CRISPR cells; test: BNIP3L/Nix immunofluorescence; format: cell-based; conditions: 1 μM, 24 h, NF1−/− vs NF1+/+ IMEC CRISPR cells, vs DMSO
# Excerpt: Mitochondria can also be removed via non-selective autophagy (21). To distinguish between inhibition of mitophagy and not non-selective autophagy, expression and localization of one mitophagy-specific receptors involved in […] mitophagy, BNIP3L/Nix, was examined via immunofluorescence (25) (FIG. 10). BNIP3 and its homologue BNIP3L/NIX are involved in hypoxia-induced mitophagy and are transcriptionally regulated through HIF in human cancers (27). BNIP3-mediated mitophagy is also reported to occur following perinuclear clustering and fragmentation of the mitochondria (28,29). Under hypoxic conditions, both BNIP3 and FUNDC1 are reported to localize to the outer mitochondrial membrane (30). Therefore, if mitophagy is inhibited with Y102 under hypoxic conditions, BNIP3, NIX/BNIP3L, and/or FUNDC1 should accumulate if Y102 inhibits […] mitophagy following receptor localization.
# CRISPR technology was used to introduce mutated NF1 into mammalian IMEC cells in order to generate an isogenic system for the testing of compounds that mimics the yeast isogenic system used in the original screens.
# The data for FIG. 10 was obtained as follows: NF1+/+ and NF1−/− IMEC CRISPR cells were plated on poly-L-lysine (Sigma) coated coverslips at a concentration of 50,000 cells/well in a 24-well plate and allowed to adhere overnight. […]
smiles,measurement,setting,value
Cn1cnnc1S/C=C/C(=O)c1ccc(F)cc1 [Y102],sensitivity of U-87-MG (growth),U-87-MG,sensitive
same,sensitivity of U251-MG (growth),U251-MG,sensitive
same,reversibility of effect on U87-MG cell viability,U87-MG cells [1],irreversible
same,ROS accumulation (DCF-DA),ROS in U87-MG cells,ROS were found to accumulate; also recorded: accumulation of ROS
same,sensitivity to Y102 after NAC pretreatment,U87-MG cells [2],reversed sensitivity to Y102; also recorded: rescued
same,BNIP3L/Nix accumulation (mitophagy receptor),[3],perinuclear clustering of the mitophagy receptor BNIP3L/NIX was observed; also recorded: accumulated with Y102 treatment moreso in NF1−/− cells than in NF1+/+ cells
